The source of these data is patent US9708314B2, “Heterocyclic amide compound” (NISSAN CHEMICAL INDUSTRIES, LTD., priority 2013, dated 2017).

Holding throughout (type): in vivo
Data set [1] has as its system Echinochloa oryzacola Vasing. The data set is described as follows: Test Example 2: herbicidal activity, application during weed generation in submerged conditions. As to conditions: Eighteenth Table; application herbicide amount 320 g/ha. The method in brief:
(§1)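 Scored three weeks post-application on a 0–5 scale (5: ≥90% herbicidal ratio, almost withered; 0: ≤5%). Plants raised from mixed-sown seed in submerged alluvial soil (4 cm water), 25–30 °C greenhouse; water-diluted emulsion applied onto water surface at one- to two-leaf stage, dose in g/ha.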

The test system of the next data set is Monochoria vaginalis. Described as above. The note with it: Eighteenth Table; application herbicide amount 320 g/ha. The method in brief:
as §1

A further data set has as its system Scirpus juncoides. The data set is described as above. As to conditions: Eighteenth Table; application herbicide amount 320 g/ha. The method in brief:
as §1

For a further data set, the system named is Abutilon theophrasti. The data set is described as follows: Test Example 4: herbicidal effect by application to foliage (diluvial soil, plastic box). The note with it: for M (Abutilon theophrasti) herbicidal effect: application to foliage, application herbicide amount 320 g/ha. The method in brief:
(§2)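 Seeds sown in sterilized diluvial soil, covered ~1.5 cm, grown 14 days in greenhouse at 25° C. to 30° C. Emulsion formulation diluted in water to set rate (g/ha) and sprayed onto stems and leaves. Effect scored visually 3 weeks later on 0–5 scale (5 = ≥90% herbicidal ratio, 0 = ≤5%).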

The next data set deals with Alopecurus myosuroides. The data set is described as above. The note with it: for J (Alopecurus myosuroides) herbicidal effect: application to foliage, application herbicide amount 320 g/ha. The method in brief:
as §2

The next data set concerns Apera spica-venti. The description is as above. As to conditions: for L (Apera spica-venti.) herbicidal effect: application to foliage, application herbicide amount 320 g/ha. In short, it runs like this: as §2
In the next data set the test system is Avena fatua. The description is as above. The note with it: for I (Avena fatua) herbicidal effect: application to foliage, application herbicide amount 320 g/ha. The method in brief:
as §2

In the next data set the test system is Chenopodium album. The data set is described as above. As to conditions: for O (Chenopodium album) herbicidal effect: application to foliage, application herbicide amount 320 g/ha. The method in brief: as §2
A further data set relates to Digitaria ciliaris. The data set is described as above. The note with it: for F (Digitaria ciliaris) herbicidal effect: application to foliage, application herbicide amount 320 g/ha. The method in brief:
as §2

For data set [2], the system named is Echinochloa crus-galli var. crus-galli. Described as above. The note with it: for H (Echinochloa crus-galli var. crus-galli) herbicidal effect: application to foliage, application herbicide amount 320 g/ha. In short, it runs like this: as §2
For the next data set, the system named is Galium spurium. The description is as above. The note with it: for Q (Galium spurium) herbicidal effect: application to foliage, application herbicide amount 320 g/ha. The method in brief:
as §2

The next data set concerns Lolium multiflorum Lam. Described as above. As to conditions: for K (Lolium multiflorum Lam.) herbicidal effect: application to foliage, application herbicide amount 320 g/ha. In short, it runs like this: as §2
The next data set deals with Setaria viridis. Described as above. The note with it: for G (Setaria viridis) herbicidal effect: application to foliage, application herbicide amount 320 g/ha. The method in brief: as §2
The subject of a further data set is Veronica persica. The description is as above. The note with it: for R (Veronica persica) herbicidal effect: application to foliage, application herbicide amount 320 g/ha. The method in brief:
as §2

In data set [3] the test system is Beta vulgaris ssp. vulgaris. Briefly: Test Example 4: effect on crop by application to foliage (diluvial soil, plastic box). As to conditions: for f (Beta vulgaris ssp. vulgaris) effect on crop: application to foliage, application herbicide amount 320 g/ha. In short, it runs like this:
as §2

The test system of a further data set is Brassica campestris L. The description is as above. As to conditions: for g (Brassica campestris L.) effect on crop: application to foliage, application herbicide amount 320 g/ha. The method in brief:
as §2

A further data set has as its system Glycine max. The data set is described as above. As to conditions: for c (Glycine max) effect on crop: application to foliage, application herbicide amount 320 g/ha. The method in brief:
as §2

The test system of another data set is Triticum aestivum. The data set is described as above. The note with it: for e (Triticum aestivum) effect on crop: application to foliage, application herbicide amount 320 g/ha. In short, it runs like this: as §2
Another data set has as its system Zea mays. The data set is described as above. As to conditions: for b (Zea mays) effect on crop: application to foliage, application herbicide amount 320 g/ha. In short, it runs like this: as §2
Data set [4] relates to directly sowed Oryza sativa. The description is as above. The note with it: for d (directly sowed Oryza sativa) effect on crop: application to foliage, application herbicide amount 320 g/ha. The method in brief:
as §2

Where [5] appears, read: Application herbicide amount 320 g/ha.
Setting [6] is: Application herbicide amount 320 g/ha, effect on crop.

For the compound `Cc1nnc(NC(=O)c2ccc(C(F)(F)F)n3c(NC(C)C)nnc23)o1` [1-090], in [1], the “A (Echinochloa oryzicola Vasing.) herbicidal ratio grade” value is 2 (Herbicidal ratio of 20% or more and less than 40%). In addition, the “C (Monochoria vaginalis) herbicidal ratio grade” value in the data set with Monochoria vaginalis is 3 (Herbicidal ratio of 40% or more and less than 70%). For the same compound, the “B (Scirpus juncoides) herbicidal ratio grade” value in the data set on Scirpus juncoides is 1 (Herbicidal ratio of 5% or more and less than 20%). Also, in the data set on Abutilon theophrasti (setting [5]), the M is 3 (Herbicidal ratio of 40% or more and less than 70%). For the same compound, the J with Alopecurus myosuroides (setting [5]) was 1 (Herbicidal ratio of 5% or more and less than 20%). Besides, the L with Apera spica-venti. (setting [5]) is 1 (Herbicidal ratio of 5% or more and less than 20%). Besides, the I in the data set on Avena fatua (setting [5]) is 3 (Herbicidal ratio of 40% or more and less than 70%). Further, in the data set with Chenopodium album (setting [5]), the O is recorded as 5 (Herbicidal ratio of 90% or more (almost completely withered)). In addition, the F in the data set on Digitaria ciliaris (setting [5]) is 5 (Herbicidal ratio of 90% or more (almost completely withered)). Also, the H in data set [2] (setting [5]) is on record as 5 (Herbicidal ratio of 90% or more (almost completely withered)). The Q with Galium spurium (setting [5]) is 1 (Herbicidal ratio of 5% or more and less than 20%). The K in the data set on Lolium multiflorum Lam. (setting [5]) is 1 (Herbicidal ratio of 5% or more and less than 20%). The G in the data set with Setaria viridis (setting [5]) was 3 (Herbicidal ratio of 40% or more and less than 70%). Moreover, the R in the data set with Veronica persica (setting [5]) was 5 (Herbicidal ratio of 90% or more (almost completely withered)). Further, the f in data set [3] (setting [6]) was 5 (Herbicidal ratio of 90% or more (almost completely withered)). For the same compound, in the data set on Brassica campestris L. (setting [6]), the g is 4 (Herbicidal ratio of 70% or more and less than 90%). Further, the c in the data set on Glycine max (setting [6]) is 1 (Herbicidal ratio of 5% or more and less than 20%). Besides, in the data set with Triticum aestivum (setting [6]), the e is reported as 0 (Herbicidal ratio of 5% or less (almost no effect)). The b with Zea mays (setting [6]) is reported as 0 (Herbicidal ratio of 5% or less (almost no effect)). Also, the d in data set [4] (setting [6]) was 4 (Herbicidal ratio of 70% or more and less than 90%).
`CCCc1nnc2c(C(=O)Nc3nnc(C)o3)ccc(C(F)(F)F)n12` [1-024]: in [1], the “A (Echinochloa oryzicola Vasing.) herbicidal ratio grade” value is 4 (Herbicidal ratio of 70% or more and less than 90%). The “C (Monochoria vaginalis) herbicidal ratio grade” value with Monochoria vaginalis is listed as 0 (Herbicidal ratio of 5% or less (almost no effect)). For the same compound, the “B (Scirpus juncoides) herbicidal ratio grade” value in the data set on Scirpus juncoides was 1 (Herbicidal ratio of 5% or more and less than 20%). Also, in the data set on Abutilon theophrasti, the “M (Abutilon theophrasti) herbicidal effect” value is 4 (Herbicidal ratio of 70% or more and less than 90%). Besides, the “J (Alopecurus myosuroides) herbicidal effect” value in the data set with Alopecurus myosuroides is recorded as 0 (Herbicidal ratio of 5% or less (almost no effect)). Also, the “L (Apera spica-venti.) herbicidal effect” value in the data set on Apera spica-venti. is 1 (Herbicidal ratio of 5% or more and less than 20%). The “I (Avena fatua) herbicidal effect” value in the data set with Avena fatua is 1 (Herbicidal ratio of 5% or more and less than 20%). Further, in the data set on Chenopodium album, the “O (Chenopodium album) herbicidal effect” value was 5 (Herbicidal ratio of 90% or more (almost completely withered)). In the data set with Digitaria ciliaris, the “F (Digitaria ciliaris) herbicidal effect” value was 4 (Herbicidal ratio of 70% or more and less than 90%). In [2], the “H (Echinochloa crus-galli var. crus-galli) herbicidal effect” value was 4 (Herbicidal ratio of 70% or more and less than 90%). The “Q (Galium spurium) herbicidal effect” value with Galium spurium is 3 (Herbicidal ratio of 40% or more and less than 70%). Besides, the “K (Lolium multiflorum Lam.) herbicidal effect” value in the data set on Lolium multiflorum Lam. was 0 (Herbicidal ratio of 5% or less (almost no effect)). In addition, the “G (Setaria viridis) herbicidal effect” value in the data set on Setaria viridis is 3 (Herbicidal ratio of 40% or more and less than 70%). The “R (Veronica persica) herbicidal effect” value in the data set on Veronica persica is 4 (Herbicidal ratio of 70% or more and less than 90%). The “f (Beta vulgaris ssp. vulgaris) effect on crop” value in data set [3] was 4 (Herbicidal ratio of 70% or more and less than 90%). In addition, in the data set on Brassica campestris L., the “g (Brassica campestris L.) effect on crop” value is 4 (Herbicidal ratio of 70% or more and less than 90%). In addition, the “c (Glycine max) effect on crop” value in the data set on Glycine max is 2 (Herbicidal ratio of 20% or more and less than 40%). For the same compound, the “e (Triticum aestivum) effect on crop” value in the data set with Triticum aestivum is 0 (Herbicidal ratio of 5% or less (almost no effect)). For the same compound, the “b (Zea mays) effect on crop” value with Zea mays is recorded as 0 (Herbicidal ratio of 5% or less (almost no effect)). The “d (directly sowed Oryza sativa) effect on crop” value in data set [4] is 4 (Herbicidal ratio of 70% or more and less than 90%).
As for `Cc1nnc(NC(=O)c2ccc(C(F)(F)F)n3c(C4CCCC4)nnc23)o1` [1-026], the “A (Echinochloa oryzicola Vasing.) herbicidal ratio grade” value in data set [1] is 3 (Herbicidal ratio of 40% or more and less than 70%). In addition, the “C (Monochoria vaginalis) herbicidal ratio grade” value in the data set with Monochoria vaginalis is 0 (Herbicidal ratio of 5% or less (almost no effect)). Also, the “B (Scirpus juncoides) herbicidal ratio grade” value with Scirpus juncoides was 1 (Herbicidal ratio of 5% or more and less than 20%). Besides, the “M (Abutilon theophrasti) herbicidal effect” value with Abutilon theophrasti was 3 (Herbicidal ratio of 40% or more and less than 70%). Further, the “J (Alopecurus myosuroides) herbicidal effect” value in the data set on Alopecurus myosuroides was 1 (Herbicidal ratio of 5% or more and less than 20%). Also, the “L (Apera spica-venti.) herbicidal effect” value with Apera spica-venti. is 2 (Herbicidal ratio of 20% or more and less than 40%). Moreover, in the data set on Avena fatua, the “I (Avena fatua) herbicidal effect” value was 1 (Herbicidal ratio of 5% or more and less than 20%). The “O (Chenopodium album) herbicidal effect” value with Chenopodium album is 5 (Herbicidal ratio of 90% or more (almost completely withered)). Besides, the “F (Digitaria ciliaris) herbicidal effect” value with Digitaria ciliaris was 3 (Herbicidal ratio of 40% or more and less than 70%). In [2], the “H (Echinochloa crus-galli var. crus-galli) herbicidal effect” value was 3 (Herbicidal ratio of 40% or more and less than 70%). Moreover, the “Q (Galium spurium) herbicidal effect” value with Galium spurium was 2 (Herbicidal ratio of 20% or more and less than 40%). Moreover, the “K (Lolium multiflorum Lam.) herbicidal effect” value with Lolium multiflorum Lam. was 1 (Herbicidal ratio of 5% or more and less than 20%). In the data set with Setaria viridis, the “G (Setaria viridis) herbicidal effect” value is 3 (Herbicidal ratio of 40% or more and less than 70%). Also, the “R (Veronica persica) herbicidal effect” value in the data set on Veronica persica is reported as 5 (Herbicidal ratio of 90% or more (almost completely withered)). Besides, the “f (Beta vulgaris ssp. vulgaris) effect on crop” value in data set [3] was 5 (Herbicidal ratio of 90% or more (almost completely withered)). The “g (Brassica campestris L.) effect on crop” value in the data set with Brassica campestris L. was 3 (Herbicidal ratio of 40% or more and less than 70%). For the same compound, the “c (Glycine max) effect on crop” value in the data set with Glycine max is reported as 0 (Herbicidal ratio of 5% or less (almost no effect)). Moreover, the “e (Triticum aestivum) effect on crop” value in the data set on Triticum aestivum was 1 (Herbicidal ratio of 5% or more and less than 20%). In the data set on Zea mays, the “b (Zea mays) effect on crop” value is on record as 0 (Herbicidal ratio of 5% or less (almost no effect)). Also, the “d (directly sowed Oryza sativa) effect on crop” value in [4] is 3 (Herbicidal ratio of 40% or more and less than 70%).
